Reference: US7514257B2, “Zinc finger transcription factor differentiation proteins” (ToolGen, Inc., priority 2001, dated 2009)

Assays:
human insulin gene [1] = test: Insulin gene expression in transiently transfected HeLa cells; format: cell-based
Source text: To test whether 08_D04-p65 can induce insulin gene expression in different human cell lines, we transiently transfected a nucleic acid encoding 08_D04-p65 into HeLa cells. Expression of the nucleic acid in HeLa cells caused a 80 fold increase in expression of the insulin gene.
Nucleic acids encoding certain zinc finger proteins were also expressed in HeLa cells. pLFD-p65 containing 08-D04 ZFP was transiently transfected into HeLa cells using LIPOFECTAMINE™ 2000 (Invitrogen).

human insulin gene [2] = test: Insulin gene expression in stably transfected 293 cells (DNA microarray); format: cell-based; conditions: stably transfected human 293 cells
Source text: We stably transfected nucleic acids encoding chimeric zinc finger proteins in human 293 cell lines, and analyzed transformed cells using DNA microarray experiments to characterize genes regulated by each chimeric zinc finger protein (see FIGS. 4, 5, and 9). We have identified a chimeric zinc finger protein (08_D04-p65) that increases the expression of human insulin gene more than 60 fold.
Nucleic acids encoding zinc finger proteins were stably introduced into FlpTRex-293 cell lines (Invitrogen) essentially as described in the manufacturer's protocols. Briefly, the HindIII-XhoI fragment from the pLFD-p65 or pLFD-Kid vectors was subcloned into pcDNA5/FRT/TO (Invitrogen Calif.). This fragment includes a sequence encoding the zinc finger proteins. Resulting plasmids were cotransfected into FlpTRex-293 cells with pOG44 (Invitrogen). Stable integrants that express ZFP-TFs upon doxycycline induction were obtained.
DNA microarrays containing 7458 human EST clones were obtained from Genomictree (Korea). FlpTRex-293 cells stably expressing ZFP-TFs were grown with (+Dox) or without Dox) 1 μg/ml Doxycycline for 48 hours. Total RNA was prepared from each sample. RNA from the −Dox sample was used as a reference (Cy3), and +Dox as the experimental sample (Cy5). […] Spots with sum of median less than 500 were colored red and not analyzed.

C2C12 myoblasts = test: ALP staining for transdifferentiation of C2C12 myoblasts to osteoblasts; format: cell-based, mouse; conditions: absence of BMP-2, seven days after transfection
Source text: We screened for chimeric zinc finger proteins that induce transdifferentiation of C2C12 myoblasts to osteoblasts in the absence of BMP-2. We transiently transfected a nucleic acid library encoding chimeric zinc finger proteins into C2C12 cells and screened for cells that undergo transdifferentiation in the absence of BMP-2. Seven days after transfection, the transformed cells were stained for alkaline phosphatase (ALP), a marker for osteoblasts (Katagiri, T. et al., (1994) J. Cell. Biol. 127:1755).
For these experiments, the mouse myoblast cell line, C2C12, was maintained in Dulbecco's Modified Eagle's Medium (DMEM) with 4.5 g/L glucose, 10% FBS, and antibiotics, at 37° C., in a humidified atmosphere containing 95% air and 5% CO2. Cells were seeded at 1.0·10^4 cells per 96-well culture plates. […] Twenty-four hours after transfection, the growth medium was replaced with DMEM containing 2% FBS, and the cells were cultured for an additional six days.
To examine the differentiation of C2C12 cells to osteoblasts, ALP staining was performed as described in Katagiri, T. et al., (1994) J. Cell.

Row | Substance | increase in expression of the insulin gene (human insulin gene [1]) | increase in expression of human insulin gene (human insulin gene [2]) | cells with strong ALP staining (C2C12 myoblasts)
1 | 08_D04-p65: ZFP RSHR-RDHT-VSSR with p65 activation domain (SEQ ID NO:6) | 80 fold | more than 60 fold | –
2 | Osteo1-p65: four-finger ZFP RDKR-QTHR1-VSTR-RDKR with p65 activation domain (SEQ ID NO:4) | – | – | about 30%
